Source: patent US12529066B2, “Plants having increased tolerance to herbicides” (BASF AGRO B.V., priority 2012, dated 2026)

Legend:
[1] = tested on: Chlamydomonas reinhardtii; assay: Selection of Chlamydomonas reinhardtii strains on solid medium containing herbicide; assay type: cell-based; conditions: solid medium containing 1×10^−7 M
[2] = tested on: Chlamydomonas reinhardtii; assay: Dose-response curves of Chlamydomonas reinhardtii wild-type and mutagenized cells (strain 17); conditions: mutagenized cells (strain 17) versus wild-type cells

SMILES: C#CCN1C(=O)C(F)(F)Oc2cc(F)c(-n3c(=O)n(C)c(=S)n(C)c3=O)cc21 [I.a.35]
- growth of resistant mutagenized cells on solid medium ([1]; resistant cells (colonies 31 and 32)): form colonies
- growth of susceptible mutagenized cells on solid medium ([1]; susceptible cells): do not grow
- IC50 of strain 17 compared to Wild-type cells [2]: much lower IC50
